Values belong to the molecule of their own block, whether it stands above or below them.
Key:
[1] = test system: Rat2 fibroblasts stably transformed with v-Src/Hu c-Src fusion gene; experiment: Anchorage Independent Src-transformed Fibroblast Proliferation Assay; assay type: cell-based; details: Rattus norvegicus, src dependent suspension growth, MTS, read-out: Src cells IC50
Src = biological target: T1, Src (Homo sapiens, UniProt P12931); experiment: Src Kinase Assay (ELISA or Delfia format, cdc2 substrate peptide); assay type: biochemical; details: read-out: Src enzyme IC50
T1 construct: purchased Upstate Biotechnologies, Lake Placid, N.Y
T1 sequence (P12931 whole entry): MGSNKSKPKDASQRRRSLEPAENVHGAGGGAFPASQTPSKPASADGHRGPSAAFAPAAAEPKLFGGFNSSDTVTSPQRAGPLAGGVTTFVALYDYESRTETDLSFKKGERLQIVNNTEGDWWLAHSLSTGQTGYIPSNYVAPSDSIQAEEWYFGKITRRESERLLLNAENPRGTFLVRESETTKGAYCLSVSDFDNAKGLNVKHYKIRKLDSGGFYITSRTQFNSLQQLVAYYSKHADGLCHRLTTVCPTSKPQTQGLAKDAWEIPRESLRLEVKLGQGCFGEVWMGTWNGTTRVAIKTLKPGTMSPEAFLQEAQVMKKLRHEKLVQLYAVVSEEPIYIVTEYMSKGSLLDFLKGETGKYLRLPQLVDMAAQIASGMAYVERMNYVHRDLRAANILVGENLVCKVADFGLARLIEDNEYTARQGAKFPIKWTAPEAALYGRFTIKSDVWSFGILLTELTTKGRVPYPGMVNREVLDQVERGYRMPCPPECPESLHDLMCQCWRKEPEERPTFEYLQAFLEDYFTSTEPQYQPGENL

permanent focal ischemia [2] = experiment: Permanent focal ischemia with extensive infarction to sensorimotor cortex, 21 day neurological assessment; assay type: in vivo, Wistar rats; details: IV bolus 10 mg/kg at 90 min, 4 hours later, and 24 and 28 hours later (total 40 mg/kg); Day 21
Method: Wistar rats (n=5 per group) were subjected to focal ischemic stroke model that results in a extensive ischemia to the sensorimotor cortex substantially as described by Chen et al., (Stroke 17:738, 1986). […] Results were evaluated by Generalized Regression Model to determine statistical significance of the differences between slopes and to compare final neurological outcome after 21 days. […] Thus, compounds of the present invention provide long-term improvement of neurological deficits.

transient focal ischemia [3] = experiment: IP administration in rat model of transient focal ischemia (90 min MCA occlusion, 48 h reperfusion); assay type: in vivo, Wistar rats; details: for recovery from stroke-induced neurological deficits: 85 min after onset of ischemia, evaluated over 48 hours
Method: Wistar rats were subjected to a 90 min occlusion of the middle cerebral artery (MCA) using an intraluminal suture approach as described by Longa et al., Stroke 1989, 20:84 followed by reperfusion for 48 hours. […] Following reperfusion, the animals were evaluated over a 48 hour period for neurological function deficit and weight loss/gain. Infarct size was measured following sacrifice at 48 hours post MCA occlusion.

permanent focal ischemia [4] = experiment: Permanent focal ischemia, model of extreme severity (intraluminal suture occlusion of internal carotid artery); assay type: in vivo, rat; details: relatively short outcome (28 hours)
Method: Permanent Focal Ischemia Example 1 was also evaluated in two rat models of permanent focal ischemia.

[5] = test system: vascular permeability in the ischemic striatum; experiment: Post ischemic vascular permeability (Evans Blue extravasation); assay type: in vivo, Wistar rats; details: single IV bolus 30 min after onset of ischemia at 3, 10 and 30 mg/kg (dose of the value not stated), 24 hours reperfusion
Method: Post Ischemic Vascular Permeability Wistar rats were subjected to a 90 min occlusion of the middle cerebral artery (MCA) using an intraluminal suture approach as described by Longa et al., Stroke 1989, 20:84 followed by reperfusion for 24 hours. […] Two hours before sacrifice animals received an IV injection of 2% Evans Blue in saline. Brains were perfused with saline and the striatum dissected. Evans Blue was extracted and quantified by spectrofluorometer based on external standards. Vascular permeability in the ischemic striatum was reduced as evidenced by a 60% decrease of Evans Blue extravasation. Thus, compounds of the present invention reduce vascular permeability associated with ischemic injury.

transient focal ischemia [6] = experiment: Therapeutic window in transient focal ischemia model; assay type: in vivo, Wistar rats
Method: Therapeutic Window In this model of transient focal ischemia three studies were conducted to examine therapeutic window. Wistar rats were subjected to 90 minute occlusion of the MCA followed by reperfusion as described above. […] Volume of infarcted tissue was measured by histological staining.

transient focal ischemia [7] = experiment: IV administration in rat model of transient focal ischemia (90 min MCA occlusion, 48 h reperfusion); assay type: in vivo, Wistar rats
Method: Following reperfusion, the animals were evaluated over a 48 hour period for neurological function deficit and weight loss/gain. Brain tissue infarction volume by were reduced by 22%, 53% and 42%, respectively. […] Thus, compounds of the present invention provide neuroprotection following focal ischemia.

Compound: CCCN1CCN(CCCOc2cc3ncc(C#N)c(Nc4cc(OC)c(Cl)cc4Cl)c3cc2OC)CC1 [Example 15, 4-[(2,4-Dichloro-5-methoxyphenyl)amino]-6-methoxy-7-[3-(4-propyl-1-piperazinyl)propoxy]-3-quinolinecarbonitrile]
IC50 [1]: 160 nM

Compound: CCN1CCN(CCOc2cc3ncc(C#N)c(Nc4cc(OC)c(Cl)cc4Cl)c3cc2OC)CC1 [Example 4, 4-[(2,4-Dichloro-5-methoxyphenyl)amino]-7-[2-(4-ethyl-1-piperazinyl)ethoxy]-6-methoxy-3-quinolinecarbonitrile]
IC50 [1]: 600 nM | melting point: 101 to 105 °C | IC50 (Src): 3.6 nM

Compound: CCN1CCC(COc2cc3ncc(C#N)c(Nc4cc(OC)c(Cl)cc4Cl)c3cc2OC)CC1 [Example 8, 4-[(2,4-Dichloro-5-methoxyphenyl)amino]-7-[(1-ethylpiperidin-4-yl)methoxy]-6-methoxyquinoline-3-carbonitrile]
IC50 [1]: 170 nM | melting point: 192 to 195 °C | IC50 (Src): 2.1 nM

Compound: CCN1CCN(CCCOc2cc3ncc(C#N)c(Nc4cc(OC)c(Cl)cc4Cl)c3cc2OC)CC1 [Example 2, 4-[(2,4-Dichloro-5-methoxyphenyl)amino]-7-[3-(4-ethyl-1-piperazinyl)propoxy]-6-methoxy-3-quinolinecarbonitrile]
IC50 [1]: 130 nM

Compound: CCOc1cc2c(Nc3cc(OC)c(Cl)cc3Cl)c(C#N)cnc2cc1OCCCN1CCN(CC)CC1 [Example 11, 4-[(2,4-Dichloro-5-methoxyphenyl)amino]-6-ethoxy-7-[3-(4-ethylpiperazin-1-yl)propoxy]quinoline-3-carbonitrile]
IC50 [1]: 160 nM | melting point: 127 to 130 °C | IC50 (Src): 0.85 nM

Compound: COc1cc(Nc2c(C#N)cnc3cc(OCCN4CCN(C)CC4)c(OC)cc23)c(Cl)cc1Cl [Example 3, 4-[(2,4-Dichloro-5-methoxyphenyl)amino]-6-methoxy-7-[2-(4-methyl-1-piperazinyl)ethoxy]-3-quinolinecarbonitrile]
IC50 [1]: 380 nM | melting point: 165 to 167 °C | IC50 (Src): 4 nM

Compound: COc1cc(Nc2c(C#N)cnc3cc(OCCCN4CCN(C)CC4)c(OC)cc23)c(Cl)cc1Cl [Example 1, 4-[(2,4-Dichloro-5-methoxyphenyl)amino]-6-methoxy-7-[3-(4-methyl-1-piperazinyl)propoxy]-3-quinolinecarbonitrile]
Behavioral Score (sensorimotor deficits) as compared to a control group (permanent focal ischemia [2]): statistically significant improvement | IC50 [1]: 100 nM | recovery from stroke-induced neurological deficits (transient focal ischemia [3]; 5 mg/kg ip): significantly improved | recovery from stroke-induced neurological deficits (transient focal ischemia [3]; 45 mg/kg ip): significantly improved | volume of infarcted brain tissue, statistical significance of reduction (transient focal ischemia [3]; 45 mg/kg ip, 48 hours post MCA occlusion): statistical significance was achieved | body weight recovery (transient focal ischemia [3]; ip, over 48 hours): Improvement in body weight recovery was observed | volume of infarcted brain tissue (transient focal ischemia [3]; most doses (1.5, 5, 15, or 45 mg/kg ip), 48 hours post MCA occlusion): Reductions in the volume of infarcted brain tissue were observed | effect in permanent focal ischemia model of extreme severity (permanent focal ischemia [4]): little or no effect | decrease of Evans Blue extravasation in the ischemic striatum [5]: 60% | Brain tissue infarction (as a % of vehicle treated) (transient focal ischemia [6]; single 10 mg/kg dose administered between 30 min and 4 hours after the ischemic injury): statistically reduced | protection from neurological deficits (as a percent of vehicle treated) (transient focal ischemia [6]; single 10 mg/kg dose administered up to 5 hours post-stroke): Statistically significant protection | protection from ischemia-induced weight loss (as a % of vehicle treated) (transient focal ischemia [6]; single 10 mg/kg dose up to 5 hours post stroke): statistically significant protection | Mean Motor Deficit Score at 24 hrs (transient focal ischemia [7]; 3 mg/kg iv): 3.83 ± 0.3 | Mean Motor Deficit Score at 48 hrs (transient focal ischemia [7]; 3 mg/kg iv): 3.25 ± 0.37 | Brain tissue infarction volume reduced by (transient focal ischemia [7]; 3 mg/kg iv, 30 min after MCA occlusion): 22% | Mean Motor Deficit Score at 24 hrs (transient focal ischemia [7]; 10 mg/kg iv): 4.08 ± 0.08 | Mean Motor Deficit Score at 48 hrs (transient focal ischemia [7]; 10 mg/kg iv): 3.67 ± 0.22 | Brain tissue infarction volume reduced by (transient focal ischemia [7]; 10 mg/kg iv, 30 min after MCA occlusion): 53% | Mean Motor Deficit Score at 24 hrs (transient focal ischemia [7]; 30 mg/kg iv): 4.08 ± 0.23 | Mean Motor Deficit Score at 48 hrs (transient focal ischemia [7]; 30 mg/kg iv): 3.67 ± 0.28 | Brain tissue infarction volume reduced by (transient focal ischemia [7]; 30 mg/kg iv, 30 min after MCA occlusion): 42% | stroke-induced neurological deficits (transient focal ischemia [7]; all three doses (3, 10 and 30 mg/kg iv)): significantly reduced | Post-stroke weight loss (transient focal ischemia [7]; iv, 30 min after MCA occlusion): significantly reduced

Further lines, with some results ahead:

melting point: 137 to 138 °C
Compound: CCOc1cc2c(Nc3cc(OC)c(Cl)cc3Cl)c(C#N)cnc2cc1OCCCN1CCN(C)CC1 [Example 9, 4-[(2,4-Dichloro-5-methoxyphenyl)amino]-6-ethoxy-7-[3-(4-methylpiperazin-1-yl)propoxy]quinoline-3-carbonitrile]
IC50 [1]: 86 nM

melting point: 174 to 176 °C | IC50 (Src): 1.9 nM
Compound: CCOc1cc2c(Nc3cc(OC)c(Cl)cc3Cl)c(C#N)cnc2cc1OCCC1CCN(C)CC1 [Example 14, 4-[(2,4-Dichloro-5-methoxyphenyl)amino]-6-ethoxy-7-[2-(1-methylpiperidin-4-yl)ethoxy]quinoline-3-carbonitrile]
IC50 [1]: 267 nM

melting point: 141 to 143 °C | IC50 (Src): 1.5 nM
Compound: CCOc1cc2c(Nc3cc(OC)c(Cl)cc3Cl)c(C#N)cnc2cc1OCCN1CCN(C)CC1 [Example 13, 4-[(2,4-Dichloro-5-methoxyphenyl)amino]-6-ethoxy-7-[2-(4-methyl-1-piperazinyl)ethoxy]quinoline-3-carbonitrile]
IC50 [1]: 146 nM

melting point: 148 to 151 °C | IC50 (Src): 1.4 nM
Compound: CCOc1cc2c(Nc3cc(OC)c(Cl)cc3Cl)c(C#N)cnc2cc1OCCCC1CCN(C)CC1 [Example 12, 4-[(2,4-Dichloro-5-methoxyphenyl)amino]-6-ethoxy-7-[3-(1-methylpiperidin-4-yl)propoxy]quinoline-3-carbonitrile]
IC50 [1]: 96 nM

melting point: 182 to 186 °C | IC50 (Src): 2.1 nM
Compound: CCOc1cc2c(Nc3cc(OC)c(Cl)cc3Cl)c(C#N)cnc2cc1OCC1CCN(C)CC1 [Example 10, 4-[(2,4-Dichloro-5-methoxyphenyl)amino]-6-ethoxy-7-[(1-methylpiperidin-4-yl)methoxy]quinoline-3-carbonitrile]
IC50 [1]: 176 nM
